Source: publication PMC10410440, “Preclinical PK investigation of a novel IDO1/TDO dual inhibitor—SHR9146 in mouse plasma and tissues by LC-MS/MS” (Frontiers in Oncology, 2023)
Read-outs that look alike come from different tables or passages of the source.

Experiment: Plasma pharmacokinetics of SHR9146 in mice (LC-MS/MS, non-compartmental analysis)
Assay type: in vivo, ICR mice
Settings: for MRT inf: read-out: MRT0-∞
Method: ICR mice with body weight 16–26 g were supplied by Shanghai Lingchang Biotechnology Co., Ltd. (animal breeding license number SCXK (Shanghai) 2013-0018) and housed at Shanghai Institute of Materia Medica, Chinese Academy of Sciences [animal use license number SYXK (Shanghai) 2015-0027]. The mice used in this study were fasted overnight for 12 h but had free access to water. Food was supplied 4 h post-dose. All experiments in this study were conducted in accordance with the Guidelines for the Care and Use of Laboratory Animals of Shanghai Institute of Materia Medica, Chinese Academy of Sciences.
A total of 30 mice were randomly assigned into five groups with equal numbers, males and females. One group was intravenously administrated with 5 mg/kg SHR9146 dissolved in […] plus 95% saline (adjusted pH to 4.0) under sterile conditions. The remaining four groups were administered respectively with a single dose of 20 , 40, or 80 mg/kg or multiple doses of 20 mg/kg twice daily for 7 days, by oral gavage of SHR9146 dissolved in 0.5% CMC-Na. Blood samples were obtained from the fossa orbitalis vein at 15 and 30 min and 1.0, 2.0, 4.0, 6.0, 8.0, 10.0, and 24.0 h after oral gavage administration. An additional 5-min time point was included for iv injection, as well as the pre-drug administration time points on the fifth, sixth, and seventh days in the multiple-dose group. The blood samples were collected in EDTA K2 anticoagulant blood collection tubes and centrifuged at 1,000 rpm for 5 min at 4°C. The supernatant plasma samples were thus produced.
Briefly as follows, an aliquot of 25-μL plasma or tissue homogenate was spiked with 100 μL of internal standard solution (1 μg/mL for plasma, 0.2 μg/mL for tissue homogenate) and 300 μL of methanol added and vortex mixed for 60 s. The mixture was then centrifuged at 14,000 rpm at 4°C for 5.0 min, and the supernatant was diluted with methanol–water (4:1, v/v) in a ratio of 1:9 for the plasma or 1:1 for the tissue homogenate, and 5 μL of the resulting solution was injected for the LC-MS/MS analysis.
The pharmacokinetic parameters of SHR9146 in mouse plasma were estimated by Phoenix 1.4 software using a non-compartmental model.
The mean concentration–time curves of SHR9146 in mouse plasma after a single oral gavage dose of 20, 40, or 80 mg/kg, or a single intravenous dose of 5 mg/kg, or the 7th-day steady state after twice-daily multiple oral doses of 20 mg/kg are shown in Figure 5 (Table S6).

[1] = 20 mg/kg i.g. single dose, all mice (Totol, 3 male + 3 female), plasma
[2] = 20 mg/kg i.g. single dose, female mice, plasma
[3] = 20 mg/kg i.g. single dose, male mice, plasma
[4] = 20 mg/kg oral twice daily for 7 days vs single 20 mg/kg oral dose, mice
[5] = 40 mg/kg i.g. single dose, male mice, plasma
[6] = 80 mg/kg i.g. single dose, all mice (Totol, 3 male + 3 female), plasma
[7] = 80 mg/kg i.g. single dose, female mice, plasma
[8] = 80 mg/kg i.g. single dose, male mice, plasma
[9] = ICR, mouse, iv, 5 mg/kg i.v. single dose, female mice, plasma
[10] = ICR, mouse, iv, 5 mg/kg i.v. single dose, male mice, plasma
[11] = both sexes, ICR, mouse, iv, 5 mg/kg i.v. single dose, all mice (Totol, 3 male + 3 female), plasma
[12] = both sexes, ICR, mouse, plasma, intravenous, 5 mg/kg, 5 mg/kg i.v., read-out: plasma drug concentration, individual mice #1-#6
[13] = both sexes, ICR, mouse, plasma, intravenous, 5 mg/kg, 5 mg/kg i.v., read-out: plasma drug concentration, mean (n=6)
[14] = both sexes, ICR, mouse, plasma, oral, 20 mg/kg, 20 mg/kg i.g. bid, 7 days, 7th day, read-out: plasma drug concentration, individual mice #1-#6
[15] = both sexes, ICR, mouse, plasma, oral, 20 mg/kg, 20 mg/kg i.g. bid, 7 days, 7th day, read-out: plasma drug concentration, mean (n=6)
[16] = both sexes, ICR, mouse, plasma, oral, 20 mg/kg, 20 mg/kg i.g. single, read-out: plasma drug concentration, mean (n=6)
[17] = both sexes, ICR, mouse, plasma, oral, 40 mg/kg, 40 mg/kg i.g. single, read-out: plasma drug concentration, mean (n=6)

plasma drug concentration, individual mice #1-#6 (5 mg/kg i.v., 4 h): BLQ
plasma drug concentration, individual mice #1-#6 (5 mg/kg i.v., 6 h): BLQ
plasma drug concentration, individual mice #1-#6 (5 mg/kg i.v., 8 h): BLQ
plasma drug concentration, individual mice #1-#6 (5 mg/kg i.v., 10 h): BLQ
plasma drug concentration, individual mice #1-#6 (5 mg/kg i.v., 24 h): BLQ
CL as share of the blood flow of mouse liver (5 mg/kg i.v., liver blood flow around 90 mL/min/kg (ref 23)): 13.3%
Vd as share of the total body fluid of mice (5 mg/kg i.v., total body fluid around 0.725 L/kg (ref 23)): 91.9%
CL (20 mg/kg i.g. bid, 7 days (7th-day steady state), all mice (Totol, 3 male + 3 female), plasma): 13.7 mL/min/kg
CL (20 mg/kg i.g. bid, 7 days (7th-day steady state), female mice, plasma): 13.7 mL/min/kg
CL (20 mg/kg i.g. bid, 7 days (7th-day steady state), male mice, plasma): 13.6 mL/min/kg
plasma drug concentration, individual mice #1-#6 (20 mg/kg i.g. bid, 7 days, 7th day, 0 h): BLQ
plasma drug concentration, individual mice #1-#6 (20 mg/kg i.g. bid, 7 days, 7th day, 8 h): BLQ
plasma drug concentration, individual mice #1-#6 (20 mg/kg i.g. bid, 7 days, 7th day, 10 h): BLQ
plasma drug concentration, individual mice #1-#6 (20 mg/kg i.g. bid, 7 days, 7th day, 24 h): BLQ
plasma drug concentration, individual mice #1-#6 (20 mg/kg i.g. bid, 7 days, Fifth day, pre-drug administration): BLQ
plasma drug concentration, individual mice #1-#6 (20 mg/kg i.g. bid, 7 days, Sixth day, pre-drug administration): BLQ
plasma drug concentration, individual mice #1-#6 (20 mg/kg i.g. single (dose cell empty, taken from the line above), 24 h): BLQ
CL [1]: 20.5 mL/min/kg
Vd [1]: 2.02 L/kg
CL [2]: 18.6 mL/min/kg
Vd [2]: 1.88 L/kg
CL [3]: 22.8 mL/min/kg
Vd [3]: 2.189 L/kg
plasma drug concentration, individual mice #1-#6 (20 mg/kg i.g. single, 4 h): BLQ
plasma drug concentration, individual mice #1-#6 (20 mg/kg i.g. single, 6 h): BLQ
plasma drug concentration, individual mice #1-#6 (20 mg/kg i.g. single, 8 h): BLQ
plasma drug concentration, individual mice #1-#6 (20 mg/kg i.g. single, 10 h): BLQ
steady-state AUC relative to single oral dose [4]: 1.55 fold
steady-state Cmax relative to single oral dose [4]: 1.08 fold
accumulation after multiple oral doses (20 mg/kg oral twice daily for 7 days, mouse plasma): no significant accumulation
CL [5]: 20.0 mL/min/kg
Vd [5]: 3.07 L/kg
plasma drug concentration, individual mice #1-#6 (40 mg/kg i.g. single, 6 h): BLQ
plasma drug concentration, individual mice #1-#6 (40 mg/kg i.g. single, 8 h): BLQ
plasma drug concentration, individual mice #1-#6 (40 mg/kg i.g. single, 10 h): BLQ
plasma drug concentration, individual mice #1-#6 (40 mg/kg i.g. single, 24 h): BLQ
CL [6]: 18.8 mL/min/kg
Vd [6]: 5.19 L/kg
CL [7]: 20.2 mL/min/kg
Vd [7]: 4.00 L/kg
CL [8]: 17.6 mL/min/kg
Vd [8]: 6.22 L/kg
plasma drug concentration, individual mice #1-#6 (80 mg/kg i.g. single, 6 h): BLQ
plasma drug concentration, individual mice #1-#6 (80 mg/kg i.g. single, 8 h): BLQ
plasma drug concentration, individual mice #1-#6 (80 mg/kg i.g. single, 24 h): BLQ
clearance [9]: 12.1 mL/min/kg
MRT inf [9]: 0.882 h
Vd (ICR, mouse, iv, 5 mg/kg i.v. single dose, female mice, plasma, read-out: Vd): 0.638 L/kg
clearance [10]: 12 mL/min/kg
MRT inf [10]: 0.965 h
Vd (ICR, mouse, iv, 5 mg/kg i.v. single dose, male mice, plasma, read-out: Vd): 0.694 L/kg
concentration at 8 h (ICR, mouse, plasma, intravenous, 5 mg/kg, 5 mg/kg i.v., 8 h, read-out: plasma drug concentration, individual mice #1-#6): 149 ng/mL
MRT inf (ICR, mouse, po, 20 mg/kg i.g. single dose, female mice, plasma): 1.68 h
MRT inf (ICR, mouse, po, 20 mg/kg i.g. single dose, male mice, plasma): 1.6 h
MRT inf (ICR, mouse, po, 40 mg/kg i.g. single dose, male mice, plasma): 2.56 h
MRT inf (ICR, mouse, po, 80 mg/kg i.g. single dose, female mice, plasma): 3.29 h
MRT inf (ICR, mouse, po, 80 mg/kg i.g. single dose, male mice, plasma): 5.9 h
clearance [11]: 12 mL/min/kg
MRT inf [11]: 0.923 h
Vd (both sexes, ICR, mouse, iv, 5 mg/kg i.v. single dose, all mice (Totol, 3 male + 3 female), plasma, read-out: Vd): 0.666 L/kg
concentration at 0.083 h [12]: 7880 ng/mL
concentration at 0.083 h [13]: 6860 ng/mL
concentration at 0.25 h [12]: 5210 ng/mL
concentration at 0.25 h [13]: 5230 ng/mL
concentration at 0.5 h [12]: 4530 ng/mL
concentration at 0.5 h [13]: 3610 ng/mL
concentration at 1 h [12]: 2450 ng/mL
concentration at 1 h [13]: 2760 ng/mL
concentration at 2 h [13]: 605 ng/mL
concentration at 4 h (both sexes, ICR, mouse, plasma, intravenous, 5 mg/kg, 5 mg/kg i.v., 4 h, read-out: plasma drug concentration, mean (n=6)): 126 ng/mL
AUC(0-inf) (both sexes, ICR, mouse, plasma, iv, 5 mg/kg, 5 mg/kg i.v. single dose, all mice (Totol, 3 male + 3 female), plasma): 6930 ng·h/mL
AUC(0-t) (both sexes, ICR, mouse, plasma, iv, 5 mg/kg, 5 mg/kg i.v. single dose, all mice (Totol, 3 male + 3 female), plasma, read-out: AUC0-t): 6760 ng·h/mL
half-life (both sexes, ICR, mouse, plasma, iv, 5 mg/kg, 5 mg/kg i.v. single dose, all mice (Totol, 3 male + 3 female), plasma, read-out: t1/2 (converted)): 0.713 h
half-life (both sexes, ICR, mouse, plasma, mice, all doses and routes except the high oral dose (80 mg/kg), read-out: mean terminal half-life in plasma, range): 0.699 to 1.66 h
concentration at 0.25 h [14]: 4300 ng/mL
concentration at 0.25 h [15]: 5710 ng/mL
concentration at 0.5 h [15]: 8020 ng/mL
concentration at 1 h [14]: 9900 ng/mL
concentration at 1 h [15]: 9430 ng/mL
concentration at 2 h [15]: 6170 ng/mL
concentration at 3 h [15]: 3170 ng/mL
concentration at 4 h (both sexes, ICR, mouse, plasma, oral, 20 mg/kg, 20 mg/kg i.g. bid, 7 days, 7th day, 4 h, read-out: plasma drug concentration, mean (n=6)): 1590 ng/mL
concentration at 6 h (both sexes, ICR, mouse, plasma, oral, 20 mg/kg, 20 mg/kg i.g. bid, 7 days, 7th day, 6 h, read-out: plasma drug concentration, mean (n=6)): 453 ng/mL
concentration at 8 h (both sexes, ICR, mouse, plasma, oral, 20 mg/kg, 20 mg/kg i.g. bid, 7 days, 7th day, 8 h, read-out: plasma drug concentration, mean (n=6)): 58 ng/mL
concentration at 10 h (both sexes, ICR, mouse, plasma, oral, 20 mg/kg, 20 mg/kg i.g. bid, 7 days, 7th day, 10 h, read-out: plasma drug concentration, individual mice #1-#6): 58 ng/mL
concentration at 24 h (both sexes, ICR, mouse, plasma, oral, 20 mg/kg, 20 mg/kg i.g. bid, 7 days, 7th day, 24 h, read-out: plasma drug concentration, individual mice #1-#6): 54 ng/mL
concentration at 0.25 h [16]: 7500 ng/mL
concentration at 0.5 h [16]: 8140 ng/mL
concentration at 1 h [16]: 4620 ng/mL
concentration at 2 h [16]: 3980 ng/mL
concentration at 3 h [16]: 2950 ng/mL
concentration at 4 h (both sexes, ICR, mouse, plasma, oral, 20 mg/kg, 20 mg/kg i.g. single, 4 h, read-out: plasma drug concentration, mean (n=6)): 526 ng/mL
concentration at 6 h (both sexes, ICR, mouse, plasma, oral, 20 mg/kg, 20 mg/kg i.g. single, 6 h, read-out: plasma drug concentration, individual mice #1-#6): 242 ng/mL
concentration at 8 h (both sexes, ICR, mouse, plasma, oral, 20 mg/kg, 20 mg/kg i.g. single, 8 h, read-out: plasma drug concentration, individual mice #1-#6): 194 ng/mL
concentration at 0.25 h [17]: 4830 ng/mL
concentration at 0.5 h [17]: 5310 ng/mL
SMILES: OCCn1cc(-c2ccc(N3CCC([C@H]4c5c(F)cccc5-c5cncn54)CC3)cc2)cn1 [SHR9146]
